Experimental data: US10183944B2 (Asana Biosciences, LLC, priority 2011, dated 2019)
pIC50: −log10 of the molar value. Structures can show the parent of a compound that is named as a salt.

Experiments:
[1] = molecular target: Syk (356-635 amino acids) catalytic domain (Homo sapiens (Human), UniProt P43405); assay: Inhibition of enzymatic Syk kinase activity (radiometric); format: biochemical; settings: read-out: IC50 Syk
Summary of the method: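 Human Syk (356-635) kinase domain (0.035–7.5 ng/reaction) preincubated with compound 30 minutes at room temperature, then reacted with pG4T substrate, 100 μM ATP (stock) and γ-32P-ATP for 10 minutes at 30° C. Reaction stopped with HCl/ATP, spotted on P81 paper, washed and counted by scintillation. Percent inhibition versus no-compound counts.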

JAK2 = JAK2 (Homo sapiens (Human), UniProt O60674); assay: Inhibition of enzymatic JAK2 kinase activity (TR-FRET); format: biochemical; settings: read-out: IC50 JAK
Summary of the method: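 Enzyme preincubated with compound 30 min at RT, then Ulight-poly-GT substrate and ATP added for 60 min at RT. EDTA stop, Eu-antiphosphotyrosine antibody; TR-FRET ratio 665/615 nm (ex 340 nm), blank-corrected; % inhibition versus positive control.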

JAK2, sequence (O60674 808-1132): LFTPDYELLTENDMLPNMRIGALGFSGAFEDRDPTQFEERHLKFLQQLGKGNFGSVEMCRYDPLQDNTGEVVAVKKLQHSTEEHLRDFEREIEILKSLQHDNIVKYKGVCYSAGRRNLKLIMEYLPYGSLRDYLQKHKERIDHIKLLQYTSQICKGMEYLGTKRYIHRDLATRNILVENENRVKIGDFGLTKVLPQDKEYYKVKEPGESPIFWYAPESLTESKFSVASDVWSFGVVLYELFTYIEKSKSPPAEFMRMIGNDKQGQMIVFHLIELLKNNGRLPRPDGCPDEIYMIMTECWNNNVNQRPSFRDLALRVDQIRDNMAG

Row | SMILES | pIC50 [1] | pIC50 (JAK2)
1 | N#CCC1CCN(c2nc(Nc3ccc(N4CCC5(CC4)CC5C(=O)O)nc3)c3c(=O)[nH]ncc3n2)CC1 (stereo not drawn) [Example 148, 6-(5-((2-(4-(cyanomethyl)piperidin-1-yl)-5-oxo-5,6-dihydropyrimido[4,5-d]pyridazin-4-yl)amino)pyridin-2-yl)-6-azaspiro[2.5]octane-1-carboxylic acid] | > 7.30 | > 7.30
2 | N#CCC1CCN(c2nc(Nc3ccc(OCCN4CCNCC4)cc3)c3c(=O)[nH]ncc3n2)CC1 [Example 150, 2-(1-(5-oxo-4-((4-(2-(piperazin-1-yl)ethoxy)phenyl)amino)-5,6-dihydropyrimido[4,5-d]pyridazin-2-yl)piperidin-4-yl)acetonitrile] | > 7.30 | < 7.00
3 | O=c1[nH]ncc2nc(-c3ccccc3)nc(Nc3ccc(OCCN4CCNCC4)cc3)c12 [Example 152, 2-phenyl-4-((4-(2-(piperazin-1-yl)ethoxy)phenyl)amino)pyrimido[4,5-d]pyridazin-5(6H)-one] | > 7.30 | < 7.00
4 | CC1CCN(c2nc(Nc3ccc(OCCN4CCNCC4)cc3)c3c(=O)[nH]ncc3n2)CC1 [Example 156, 2-(4-methylpiperidin-1-yl)-4-((4-(2-(piperazin-1-yl)ethoxy)phenyl)amino) pyrimido[4,5-d]pyridazin-5(6H)-one hydrochloride] | > 7.30 | > 7.00
5 | O=C1CN(c2ccc(Nc3nc(N4CCCCCC4)nc4cn[nH]c(=O)c34)cc2)CCN1 [Example 165, 2-(azepan-1-yl)-4-((4-(3-oxopiperazin-1-yl)phenyl)amino)pyrimido[4,5-d]pyridazin-5(6H)-one] | > 7.00 | > 8.00
6 | CN(C)CCOc1ccc(Nc2nc(N3CCCCCC3)nc3cn[nH]c(=O)c23)cc1 [Example 167, 2-(azepan-1-yl)-4-((4-(2-(dimethylamino)ethoxy)phenyl)amino)pyrimido[4,5-d]pyridazin-5(6H)-one] | > 7.30 | > 8.00
7 | O=c1[nH]ncc2nc(N3CCCCCC3)nc(Nc3ccc(OCCC4CCNCC4)cc3)c12 [Example 168, 2-(azepan-1-yl)-4-((4-(2-(piperidin-4-yl)ethoxy)phenyl)amino)pyrimido[4,5-d]pyridazin-5(6H)-one] | > 7.30 | > 7.30
8 | O=c1[nH]ncc2nc(N3CCCCC3)nc(Nc3ccc(OCCN4CCNCC4)nc3)c12 [Example 181, 4-((6-(2-(piperazin-1-yl)ethoxy)pyridin-3-yl)amino)-2-(piperidin-1-yl)pyrimido[4,5-d]pyridazin-5(6H)-one] | < 7.00 | < 7.00
9 | O=c1[nH]ncc2nc(N3CCCCCC3)nc(Nc3ccc(OCCN4CCNCC4)nc3)c12 [Example 182, 2-(azepan-1-yl)-4-((6-(2-(piperazin-1-yl)ethoxy)pyridin-3-yl)amino)pyrimido[4,5-d]pyridazin-5(6H)-one] | > 7.00 | > 8.00
10 | CC(C)N(CCOc1ccc(Nc2nc(N3CCCCCC3)nc3cn[nH]c(=O)c23)cc1)C(C)C [Example 188, 2-(azepan-1-yl)-4-((4-(2-(diisopropylamino)ethoxy)phenyl)amino) pyrimido[4,5-d]pyridazin-5(6H)-one] | > 7.30 | > 7.30
11 | O=c1[nH]ncc2nc(N3CCCCCC3)nc(Nc3ccc(N4CCC(CCO)CC4)cc3)c12 [Example 195, 2-(azepan-1-yl)-4-((4-(4-(2-hydroxyethyl)piperidin-1-yl)phenyl)amino) pyrimido[4,5-d]pyridazin-5(6H)-one] | > 8.00 | > 8.00
12 | N#CCC1CCN(c2nc(Nc3ccc(N4CCC(CCO)CC4)cc3)c3c(=O)[nH]ncc3n2)CC1 [Example 196, 2-(1-(4-((4-(4-(2-hydroxyethyl)piperidin-1-yl)phenyl)amino)-5-oxo-5,6-dihydropyrimido[4,5-d]pyridazin-2-yl)piperidin-4-yl)acetonitrile] | > 8.00 | > 8.00
